Source: patent US9296690B2, “Method for inhibiting differentiation of osteoclast and pharmaceutical composition comprising thereof” (Metacine, Inc., priority 2012, dated 2016)
One block for each compound: values may come before it.

Columns and labels:
NF-kappa B = experiment: Inhibition of NF-kappa B in RAW264.7 cells; assay type: cell-based, mouse; details: 10 μM, 12 hours, then ALLN and RANKL 30 minutes
From the text: It is confirmed that the compound of 4e is suppressed the mechanism of NF-kappa B 2 times more than ZA (FIG. 3)

[1] = molecular target: T1, human recombinant sRNAK receptor (Homo sapiens, UniProt Q9Y6Q6); experiment: Inhibition activity of RANK receptor binding (protein chip, sRANK ligand); details: n=6
T1 construct: human recombinant sRNAK receptor molecule; purchased PeproTech
T1 sequence (Q9Y6Q6 30-212 limits assumed): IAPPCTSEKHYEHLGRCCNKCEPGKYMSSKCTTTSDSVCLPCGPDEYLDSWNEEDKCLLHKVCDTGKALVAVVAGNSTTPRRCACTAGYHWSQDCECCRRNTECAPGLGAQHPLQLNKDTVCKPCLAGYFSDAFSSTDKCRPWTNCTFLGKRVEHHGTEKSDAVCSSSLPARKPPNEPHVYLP
Description: After the human recombinant sRNAK receptor molecule (100 μg/ml, PeproTech) was fixed to the protein chip (PeproTech), human recombinant sRANK ligand (10 μg/ml, PeproTech) was treated and incubated for 1 hour. OPG molecule was used as a positive control, and the compound and OPG are simultaneously treated. A comparative analysis was conducted to compare the binding inhibition effect of the compound using OPG as a control. Mouse anti-human sRANK ligand monoclonal antibody coupled with Cy5-fluorescent (1.0 μg/ml, PeproTech) was treated for 30 minutes, and scanning the strength of luminescence by using image analysis scanner and analyzed to the GraphPad Prism 4 software. Out of the above stated compounds, compound 4e and ZA were comparatively analyzed. […] That of the compound 4e was 46.70%.

human integrin αyβ3 = molecular target: T2, human integrin αyβ3 (Homo sapiens, UniProt P05106+P06756); experiment: Inhibition activity of osteopontin-integrin binding (protein chip); details: n=6
T2 construct: purchased Milipore
T2 sequence (P06756 31-889 limits assumed): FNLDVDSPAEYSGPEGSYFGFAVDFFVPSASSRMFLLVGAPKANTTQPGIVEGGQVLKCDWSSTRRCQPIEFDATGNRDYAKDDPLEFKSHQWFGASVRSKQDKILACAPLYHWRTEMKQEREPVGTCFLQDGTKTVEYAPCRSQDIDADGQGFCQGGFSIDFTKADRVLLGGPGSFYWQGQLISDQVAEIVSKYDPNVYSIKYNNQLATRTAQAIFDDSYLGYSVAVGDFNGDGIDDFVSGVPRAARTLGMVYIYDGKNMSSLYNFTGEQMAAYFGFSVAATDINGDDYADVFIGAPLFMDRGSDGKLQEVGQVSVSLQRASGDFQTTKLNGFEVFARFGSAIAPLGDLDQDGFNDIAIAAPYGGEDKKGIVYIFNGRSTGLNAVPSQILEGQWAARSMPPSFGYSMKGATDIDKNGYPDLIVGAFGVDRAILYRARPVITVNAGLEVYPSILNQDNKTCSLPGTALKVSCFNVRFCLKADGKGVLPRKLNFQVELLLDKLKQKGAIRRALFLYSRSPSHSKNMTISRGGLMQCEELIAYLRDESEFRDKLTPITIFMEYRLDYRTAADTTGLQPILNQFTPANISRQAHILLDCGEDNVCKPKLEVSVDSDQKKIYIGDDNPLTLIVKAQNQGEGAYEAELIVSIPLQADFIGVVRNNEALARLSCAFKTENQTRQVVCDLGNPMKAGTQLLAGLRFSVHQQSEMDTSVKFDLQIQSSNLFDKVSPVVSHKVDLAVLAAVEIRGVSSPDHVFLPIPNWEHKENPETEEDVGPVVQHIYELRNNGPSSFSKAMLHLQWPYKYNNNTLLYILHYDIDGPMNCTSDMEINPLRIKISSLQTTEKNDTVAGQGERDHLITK
T2 sequence (P06756 891-1048 partner limits assumed): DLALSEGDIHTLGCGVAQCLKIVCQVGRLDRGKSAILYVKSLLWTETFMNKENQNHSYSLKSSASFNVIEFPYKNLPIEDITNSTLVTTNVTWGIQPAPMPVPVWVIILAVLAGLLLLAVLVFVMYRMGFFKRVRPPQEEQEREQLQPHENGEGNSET
T2 sequence (P05106 27-788): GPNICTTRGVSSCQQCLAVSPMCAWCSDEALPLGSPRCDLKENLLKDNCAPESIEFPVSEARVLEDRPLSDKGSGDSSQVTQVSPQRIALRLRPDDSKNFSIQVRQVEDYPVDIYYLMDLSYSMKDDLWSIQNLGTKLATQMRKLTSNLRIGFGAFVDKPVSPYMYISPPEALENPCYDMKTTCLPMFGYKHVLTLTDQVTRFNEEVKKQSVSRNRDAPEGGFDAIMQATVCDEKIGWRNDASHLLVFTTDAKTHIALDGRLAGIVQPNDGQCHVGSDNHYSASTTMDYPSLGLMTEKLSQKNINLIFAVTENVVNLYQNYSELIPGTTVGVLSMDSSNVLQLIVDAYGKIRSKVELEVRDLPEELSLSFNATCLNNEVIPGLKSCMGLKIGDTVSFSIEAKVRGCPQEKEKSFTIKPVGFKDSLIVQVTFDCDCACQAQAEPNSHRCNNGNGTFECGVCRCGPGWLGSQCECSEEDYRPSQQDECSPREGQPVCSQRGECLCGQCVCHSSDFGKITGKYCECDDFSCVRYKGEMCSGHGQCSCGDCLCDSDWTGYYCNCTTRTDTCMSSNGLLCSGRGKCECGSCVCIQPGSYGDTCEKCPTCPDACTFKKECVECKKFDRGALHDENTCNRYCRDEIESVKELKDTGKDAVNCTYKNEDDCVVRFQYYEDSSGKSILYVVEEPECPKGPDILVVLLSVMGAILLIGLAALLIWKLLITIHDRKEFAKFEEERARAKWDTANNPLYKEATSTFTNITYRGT
Description: After the human integrin αyβ3 (100 μg/ml, Milipore) was fixed to the protein chip (PeproTech), the human recombinant OPN (40 μg/ml, PeproTech) molecule coupled with Cy5-fluorescent was reacted for 1 hour. Echistatin molecule (40 μg/ml, Sigma-Aldrich) was used as a positive control. The samples were simultaneously treated to conduct a comparative analysis for the binding inhibitory effect thereof. Finally, the strength of luminescence is scanned by using image analysis scanner and analyzed to the GraphPad Prism 4 software. […] The binding inhibitory activity of compound 4e of the invention was about 3 times higher than that of ZA (n=6)(FIG. 5).

RAW 264.7 cell = experiment: Inhibition effect on osteoclast differentiation (RANKL-stimulated RAW 264.7 cells, TRAP stain, osteoclast count); assay type: cell-based, mouse; details: RAW 264.7 + RANKL; for osteoclast differentiation degree (number of cells differentiated to osteoclasts): 7 days, osteoclasts with more than 4 nuclei, two values per concentration, control 51.5
Description: RAW 264.7 cell, a mouse macrophage/monocyte cell line which can be differentiated in various forms depends on its surrounding environments and stimuli, is differentiated to multinucleated osteoclast by the stimulus of RANKL (100 ng/ml). Inhibition effect of each compound on osteoclast differentiation was analyzed by comparing the degree of osteoclast differentiation when RAW 264.7 cell was treated with RANKL and the subject each compound simultaneously.
Inhibition activities of osteoclast differentiation in respect of compounds 4a, 4b, 4c, 4d, 4e, 4f, 4 g, 4 h, 4i, 4j, 4k, 4l, 4m, 4n, 4o, 7a, 7b, 7c, and 7d were tested. Macrophage/monocyte RAW 264.7 cell was used as a cell and 1.5×10^3 cells were seeded in a 96 well plate. The synthesized compound and zoledronic acid as a control material were dissolved in 10% DMSO aqueous solution and treated to cells according to each concentration […].
After pre-treating each compound for 6 hours and then, treating RANKL, the incubation was carried out for 7 days in a 5% CO2 incubator. To observe osteoclasts well, they were stained by TRAP (tartrate resistance acid phosphatase) stain method. The number of cells differentiated to osteoclasts was counted and then, a comparative analysis was conducted for the degree of each compound's osteoclast differentiation.
Only the osteoclasts containing nucleus number more than 4 were only counted as effective analysis targets in both control and experiment groups (See FIGS. 1 and 2).

melting point: 213 to 214 °C
Compound: O=C1C(c2ccccc2)=C(c2ccccc2)C(=O)N1c1ccccc1Cl [Compound 4c, 1-(2-chlorophenyl)-3,4-dipheyl-1H-pyrrole-2,5-dione]

melting point: 144 to 145 °C
Compound: O=C1C(c2ccccc2)=C(c2ccccc2)C(=O)N1c1cccc(Cl)c1 [Compound 4d, 1-(3-chlorophenyl)-3,4-diphenyl-1H-pyrrole-2,5-dione]

melting point: 152 to 153 °C
Compound: O=C1C(c2ccccc2)=C(c2ccccc2)C(=O)N1c1ccccc1C(F)(F)F [Compound 4f, 3,4-diphenyl-1-(2-(trifluoromethyl)phenyl)-1H-pyrrole-2,5-dione]

melting point: 113 to 114 °C
Compound: O=C1C(c2ccccc2)=C(c2ccccc2)C(=O)N1Cc1ccccc1F [Compound 4n, 1-(2-fluorobenzyl)-3,4-diphenyl-1H-pyrrole-2,5-dione]

melting point: 107 to 108 °C
Compound: O=C1C(c2ccccc2)=C(c2ccccc2)C(=O)N1Cc1cccc(F)c1 [Compound 4o, 1-(3-fluorobenzyl)-3,4-diphenyl-1H-pyrrole-2,5-dione]

melting point: 129 to 130 °C
Compound: O=C1C(c2ccccc2)=C(c2ccccc2)C(=O)N1CCc1cccc(F)c1 [Compound 4s, 1-(3-fluorophenethyl)-3,4-diphenyl-1H-pyrrole-2,5-dione]

Second part, the compound before the results:

Compound: CC(C)c1cccc(C(C)C)c1N1C(=O)C(c2ccccc2)=C(c2ccccc2)C1=O [Compound 4a, 1-(2,6-diisopropylphenyl)-3,4-diphenyl-1H-pyrrole-2,5-dione]
melting point: 233 to 234 °C

Compound: O=C1C(c2ccccc2)=C(c2ccccc2)C(=O)N1c1ccc(Cl)cc1 [Compound 4e, 1-(4-chlorophenyl)-3,4-diphenyl-1H-pyrrole-2,5-dione]
suppression of the mechanism of NF-kappa B relative to ZA (NF-kappa B): 2 times
binding inhibitory activity upon to RANK receptor [1]: 46.70%
binding inhibitory activity upon to RANK receptor relative to ZA [1]: about 1.7 times
OPN-integrin binding inhibitory activity relative to ZA (human integrin αyβ3): about 3 times
binding inhibitory rate with integrin molecule (OPN-integrin) (human integrin αyβ3): 26.45%
inhibition effect on osteoclast differentiation (in words) (RAW 264.7 cell): more superior inhibition effect on osteoclast differentiation than the control group of zoledronic acid

Compound: O=C1C(c2ccccc2)=C(c2ccccc2)C(=O)N1C1CCCCC1 [Compound 4g, 1-cyclohexyl-3,4-diphenyl-1H-pyrrole-2,5-dione]
melting point: 159 to 160 °C

Compound: O=C(O)c1cc(N2C(=O)C(c3ccccc3)=C(c3ccccc3)C2=O)ccc1O [Compound 4i, 5-(2,5-dioxo-3,4-diphenyl-2,5-dihydro-1H-pyrrol-1-yl)-2-hydroxybenzoic acid]
melting point: 249 to 250 °C

Compound: O=C1C(c2ccccc2)=C(c2ccccc2)C(=O)N1c1cccc(F)c1 [Compound 4k, 1-(3-fluorophenyl)-3,4-diphenyl-1H-pyrrole-2,5-dione]
melting point: 157 to 158 °C
osteoclast differentiation degree (number of cells differentiated to osteoclasts) (RAW 264.7 cell; 0.5 μM): 40
osteoclast differentiation degree (number of cells differentiated to osteoclasts) (RAW 264.7 cell; 1 μM): 25
osteoclast differentiation degree (number of cells differentiated to osteoclasts) (RAW 264.7 cell; 5 μM): 40
osteoclast differentiation degree (number of cells differentiated to osteoclasts) (RAW 264.7 cell; 10 μM): 28

Compound: O=C1C(c2ccccc2)=C(c2ccccc2)C(=O)N1CCc1ccccc1F [Compound 4r, 1-(2-fluorophenethyl)-3,4-diphenyl-1H-pyrrole-2,5-dione]
melting point: 111 to 112 °C

Compound: O=C1C(c2ccccc2)=C(c2ccccc2)C(=O)N1CCc1ccc(F)cc1 [Compound 4t, 1-(4-fluorophenethyl)-3,4-diphenyl-1H-pyrrole-2,5-dione]
melting point: 153 to 154 °C

Compound: O=P(O)(O)C(O)(Cn1ccnc1)P(=O)(O)O [ZA, zoledronic acid, reference compound]
binding inhibitory activity upon to RANK receptor [1]: 27.55%
binding inhibitory rate with integrin molecule (OPN-integrin) (human integrin αyβ3): 8.65%

Compound: Echistatin [reference compound]
binding inhibitory rate with integrin molecule (OPN-integrin) (human integrin αyβ3): 51.75%

Compound: OPG: OPG (osteoprotegrin) molecule, RANKL antagonist, used as a positive control [reference compound]
binding inhibitory activity upon to RANK receptor [1]: 83.65%
